Laboratory results: publication PMC8465290, “Zoledronic Acid as a Novel Dual Blocker of KIR6.1/2-SUR2 Subunits of ATP-Sensitive K^+ Channels: Role in the Adverse Drug Reactions” (Pharmaceutics, 2021)

Tests used:
[1] = test system: KATP channels of femora primary bone cells; test: KATP currents in cell-attached patches of femora (long bone) primary bone cells; type: cell-based, mice; settings: for IC50 / Imax % / Slope: Femora primary bone cells, cell-attached patches
Description: (§1) The culture of primary bone cells from adult mice was obtained from long bones (tibia and femur) and calvaria, as previously described. Bones were collected, cleaned, and flushed for removing the internal bone marrow cells. Small bone pieces of around 1 mm^3 were treated with trypsin-EDTA 0.25% (w/v) for 1 h and with 0.2% collagenase solution for an additional hour in a shaking water bath to remove all remaining soft tissue and adherent cells. Clean bone pieces have been cultured in basal medium enriched with 50 µg/mL of ascorbic acid. Osteoblasts from femora (Figure S1A, Supplementary Material) and calvaria chips (Figure S1B) were positive to Alizarin red staining (Figure S1C). The marker of osteoblasts was positive, as tested by the PCR expression analysis on cell pellets (Figure S1D).
(§2) The solutions for whole-cell and cell attached patches were as follows. The pipette solution contained 132 mM KCl, 1 mM ethylene glycol-bis(β-aminoethylether)-N,N,N′,N′-tetraaceticacid (EGTA), 10 mM NaCl, 2 mM MgCl2, 10 mM HEPES, 1 mM Na2ATP, and 0.3 mM Na2GDP (pH = 7.2). The bath solution contained 142 mM NaCl, 2.8 mM KCl, 1 mM CaCl2, 1 mM MgCl2, 11 mM glucose, and 10 mM HEPES (pH = 7.4).
(§3) The whole-cell and cell-attached patch-clamp experiments were performed in asymmetrical K^+ ion concentration in physiological conditions using pipettes with the resistance of 3–5 MΩ.
(§4) Drug actions on the channel currents recorded during instantaneous I/V relationships were investigated by applying a depolarization protocol, in response to voltage pulses from −180 mV to +100 mV (Vm) in 20 mV steps. Currents were expressed as densities (pA/pF) to control for cell size/capacitance differences. All experiments were performed at room temperature (20–22 °C) and sampled at 2 kHz (filter = 1 kHz) using an Axopatch-1D amplifier equipped with a CV-4 headstage (Axon Instruments; Foster City, CA, USA). Drug solutions were applied using a fast perfusion system during the continuous monitoring of the seal resistance at 18–22 °C room temperature in excised patches. In whole-cell and cell-attached patch-clamp experiments, before recording, the cells were equilibrated for 10 s with the solution. Data acquisition and analysis were performed using pCLAMP 10 software suite (Axon Instruments; Foster City, CA, USA), as previously described. Seal resistance was continuously monitored during the experiment.
The percentage of KATP current inhibition induced by ZOL was calculated as (I CTRL-I drug)/(I CTRL-I BaCl2) × −100. The concentration response data of ZOL against different KATP channel currents were fitted by an algorithm using the non-linear dynamic fitting routine of Sigma Plot, 10.0.

KIR6.2-SUR1 = molecular target: T1, KIR6.2-SUR1 (Homo sapiens, UniProt Q09428+Q14654); test: Whole-cell current of recombinant KIR6.2-SUR1 in Hek293 cells; type: cell-based; settings: Hek293 cells KIR6.2-SUR1, whole-cell
T1 construct: expressed in transfected cells; host or cells: Hek293
Description: (§5) For experiments on recombinant channel subunits, Hek293 cells were transfected with the relevant plasmids, as previously described.
as §2
(§6) CaCl2 was added to the pipette solutions to give a free Ca^2+ ion concentration of 1.6 × 10^−6 M in whole-cell experiments. The calculation of the free Ca^2+ ion concentration in the pipette was performed using the MaxChelator software (Stanford University; Stanford, CA, USA).
as §3
as §4, with “Data acquisition and analysis were performed using pCLAMP 10 software suite (Axon Instruments; Foster City, CA, USA), as previously described.” left out
(§7) The percentage of KATP current inhibition induced by ZOL was calculated as (I CTRL-I drug)/(I CTRL-I BaCl2) × −100. […]

[2] = design: method as in EudraVigilance database; settings: cited from earlier work
[3] = test system: KATP channels of Soleus (SOL) muscle fibers; test: KATP currents in excised macro-patches from SOL muscle fibers (patch-clamp); type: cell-based, mice; settings: excised macropatches
Source text: (§8) In accordance with 3R RULE (DIRECTIVE 2010/63/EU) Replace, Reduce, Refine, bone and skeletal muscle were collected from wild-type male mice C57BL sacrificed for other scientific purposes (Ethic Committee name, Organization for Animal Health O.P.B.A. University of Bari, Italy, project: 7282018PR). The fibers were enzymatically isolated from Extensor digitorum longus (EDL) and Soleus (SOL) muscles, as previously described.
(§9) The solutions for excised patch experiments on isolated muscle fibers were as follows. The patch-pipette solution contained 150 mM KCl, 2 mM CaCl2, and 1 mM Mops (pH 7.2); the bath solution contained 150 mM KCl, 5 mM EGTA, and 10 mM Mops (pH 7.2).
(§10) The KATP currents of native skeletal muscle fibers were recorded in excised macro patches using pipettes of 0.9–1.2 MΩ of resistance on isolated skeletal muscle fibers in symmetrical 150 mM K^+ ions concentrations on both sides of the membrane during pulse going from 0 mV to −60 mV (Vm), as previously described.
as §4, with “Data acquisition and analysis were performed using pCLAMP 10 software suite (Axon Instruments; Foster City, CA, USA), as previously described.” left out
as §7

KIR6.1-SUR2B = molecular target: T2, KIR6.1-SUR2B (Homo sapiens, UniProt O60706+Q15842); test: Whole-cell current of recombinant KIR6.1-SUR2B in Hek293 cells; type: cell-based
T2 construct: expressed in transfected cells; host or cells: Hek293
Description: as §5, §2, §6, §3
as §4, with “Data acquisition and analysis were performed using pCLAMP 10 software suite (Axon Instruments; Foster City, CA, USA), as previously described.” left out
as §7

KIR6.2-SUR2A = molecular target: T3, KIR6.2-SUR2A (Homo sapiens, UniProt O60706+Q14654); test: Whole-cell current of recombinant KIR6.2-SUR2A in Hek293 cells; type: cell-based
T3 construct: expressed in transfected cells; host or cells: Hek293
Description: as §5, §2, §6, §3
as §4, with “Data acquisition and analysis were performed using pCLAMP 10 software suite (Axon Instruments; Foster City, CA, USA), as previously described.” left out
as §7

[4] = Pharmacovigilance analysis of A.D.R. in EudraVigilance database; design: species or system human; settings: for rhabdomyolysis, % of A.D.R.: within musculoskeletal and connective tissue disorders
Source text: All coding preferred terms per System Organ Class (S.O.C.) were screened in the EudraVigilance database (http://www.adrreports.eu/ accessed on 1 May 2021), and those potentially associated with KATP channel blocking actions were reported and subject to analysis.
The data were extracted from EudraVigilance, collected, and analyzed on Microsoft 365 Excel software package (Microsoft 10.00). The not specified category was not included in the calculation. The duplication of a specific report per S.O.C. was evaluated manually and excluded from the analysis.
The Proportional Reporting Ratio (P.R.R.) was calculated using the following equation: a/(a+c)/b/(b + d) where a is the reaction of interest to a given drug of interest, b is the reaction of interest for all other drugs in the class, c are all other reactions to a given drug of interest, and d are all other reactions to all other drugs in the class. Signal definition: P.R.R. ≥ 2, a minimum of three ratios/cases for the reaction of interest, X^2 ≥ 4. No signal is identified if P.R.R. is = 1 [47].

KIR6.1-SUR1 = molecular target: T4, KIR6.1-SUR1 (Homo sapiens, UniProt Q09428+Q15842); test: Whole-cell current of recombinant KIR6.1-SUR1 in Hek293 cells; type: cell-based; settings: Hek293 cells KIR6.1-SUR1, whole-cell, −60 mV
T4 construct: expressed in transfected cells; host or cells: Hek293
Description: as §5, §2
CaCl2 was added to the pipette solutions to give a free Ca^2+ ion concentration of 1.6 × 10^−6 M in whole-cell experiments. The calculation of the free Ca^2+ ion concentration in the pipette was performed using the MaxChelator software (Stanford University; Stanford, CA, USA). […]
Drug actions on the channel currents recorded during instantaneous I/V relationships were investigated by applying a depolarization protocol, in response to voltage pulses from −180 mV to +100 mV (Vm) in 20 mV steps. Currents were expressed as densities (pA/pF) to control for cell size/capacitance differences. […] Seal resistance was continuously monitored during the experiment.
as §7

[5] = molecular target: T5, KATP channels of Extensor digitorum longus (EDL) muscle fibers (Mus musculus, UniProt P70170+Q61743); test: KATP currents in excised macro-patches from EDL muscle fibers (patch-clamp); type: cell-based, mice; settings: excised macropatches
T5 construct: The KATP currents of native skeletal muscle fibers were recorded in excised macro patches; from tissue; host or cells: isolated Extensor digitorum longus muscle fibers of C57BL mice
Source text: as §8, §9, §10
as §4, with “Data acquisition and analysis were performed using pCLAMP 10 software suite (Axon Instruments; Foster City, CA, USA), as previously described.” left out
as §7

[6] = design: method as in PMID 24330023; settings: multiple myeloma patients ref 9; cited from earlier work
[7] = test system: KATP channels of calvaria primary bone cells; test: KATP currents in cell-attached patches of calvaria primary bone cells; type: cell-based, mice
Description: as §1, §2, §3
Drug actions on the channel currents recorded during instantaneous I/V relationships were investigated by applying a depolarization protocol, in response to voltage pulses from −180 mV to +100 mV (Vm) in 20 mV steps. Currents were expressed as densities (pA/pF) to control for cell size/capacitance differences. All experiments were performed at room temperature (20–22 °C) and sampled at 2 kHz (filter = 1 kHz) using an Axopatch-1D amplifier equipped with a CV-4 headstage (Axon Instruments; Foster City, CA, USA). […] Seal resistance was continuously monitored during the experiment.
as §7

[8] = all ages ref EudraVigilance database
[9] = musculoskeletal and connective tissues disorders S.O.C.
[10] = within the KATP channel blockers

T5 sequence (Q61743 whole entry): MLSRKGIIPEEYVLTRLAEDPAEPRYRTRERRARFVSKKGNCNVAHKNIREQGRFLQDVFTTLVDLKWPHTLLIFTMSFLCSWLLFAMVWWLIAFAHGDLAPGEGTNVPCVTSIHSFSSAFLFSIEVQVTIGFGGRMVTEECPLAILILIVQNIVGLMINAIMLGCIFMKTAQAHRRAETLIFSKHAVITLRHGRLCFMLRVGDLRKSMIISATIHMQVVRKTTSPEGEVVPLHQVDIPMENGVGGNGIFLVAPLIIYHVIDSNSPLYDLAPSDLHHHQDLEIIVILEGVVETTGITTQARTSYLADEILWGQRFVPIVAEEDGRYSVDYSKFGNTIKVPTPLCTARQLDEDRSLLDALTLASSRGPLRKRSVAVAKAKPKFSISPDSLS
T5 sequence (P70170 whole entry): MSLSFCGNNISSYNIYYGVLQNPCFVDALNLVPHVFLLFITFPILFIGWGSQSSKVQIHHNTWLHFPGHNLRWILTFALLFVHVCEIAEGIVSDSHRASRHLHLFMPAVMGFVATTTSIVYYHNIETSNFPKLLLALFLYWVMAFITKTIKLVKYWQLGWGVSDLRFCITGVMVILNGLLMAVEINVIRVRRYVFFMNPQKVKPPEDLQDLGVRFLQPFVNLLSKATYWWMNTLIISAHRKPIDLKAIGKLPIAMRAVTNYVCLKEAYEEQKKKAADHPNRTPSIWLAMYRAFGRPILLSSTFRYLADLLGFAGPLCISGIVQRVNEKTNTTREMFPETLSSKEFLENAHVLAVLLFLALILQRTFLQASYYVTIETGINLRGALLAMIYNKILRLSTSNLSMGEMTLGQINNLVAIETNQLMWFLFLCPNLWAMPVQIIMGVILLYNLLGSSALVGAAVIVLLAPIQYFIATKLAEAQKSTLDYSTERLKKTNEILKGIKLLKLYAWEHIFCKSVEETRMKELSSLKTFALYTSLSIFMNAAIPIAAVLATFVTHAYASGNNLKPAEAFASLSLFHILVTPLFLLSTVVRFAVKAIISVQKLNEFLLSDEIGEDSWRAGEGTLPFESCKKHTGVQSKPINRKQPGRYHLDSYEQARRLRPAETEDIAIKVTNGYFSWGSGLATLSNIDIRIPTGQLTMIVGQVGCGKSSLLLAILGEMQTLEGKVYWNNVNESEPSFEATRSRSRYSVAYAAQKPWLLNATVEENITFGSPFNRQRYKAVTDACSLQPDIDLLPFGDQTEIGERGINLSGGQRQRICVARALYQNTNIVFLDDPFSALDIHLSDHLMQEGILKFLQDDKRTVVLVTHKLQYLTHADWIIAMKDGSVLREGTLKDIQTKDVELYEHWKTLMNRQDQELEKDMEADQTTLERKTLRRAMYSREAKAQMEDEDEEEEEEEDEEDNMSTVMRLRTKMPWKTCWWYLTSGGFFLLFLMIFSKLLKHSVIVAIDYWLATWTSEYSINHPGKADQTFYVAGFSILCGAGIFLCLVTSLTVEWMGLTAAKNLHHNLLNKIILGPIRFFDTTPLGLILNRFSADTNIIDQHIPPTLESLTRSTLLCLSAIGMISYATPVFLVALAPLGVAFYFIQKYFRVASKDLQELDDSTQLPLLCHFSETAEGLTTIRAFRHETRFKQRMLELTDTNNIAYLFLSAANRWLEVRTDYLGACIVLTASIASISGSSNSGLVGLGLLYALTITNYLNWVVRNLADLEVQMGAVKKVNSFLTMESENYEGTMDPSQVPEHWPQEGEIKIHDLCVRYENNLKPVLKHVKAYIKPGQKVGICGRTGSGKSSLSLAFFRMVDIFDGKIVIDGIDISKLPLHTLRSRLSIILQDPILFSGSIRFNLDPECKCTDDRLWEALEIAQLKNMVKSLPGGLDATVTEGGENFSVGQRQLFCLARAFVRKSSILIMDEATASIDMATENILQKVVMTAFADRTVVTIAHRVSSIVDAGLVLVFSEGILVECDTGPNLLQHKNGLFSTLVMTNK
T2 sequence (Q15842 whole entry): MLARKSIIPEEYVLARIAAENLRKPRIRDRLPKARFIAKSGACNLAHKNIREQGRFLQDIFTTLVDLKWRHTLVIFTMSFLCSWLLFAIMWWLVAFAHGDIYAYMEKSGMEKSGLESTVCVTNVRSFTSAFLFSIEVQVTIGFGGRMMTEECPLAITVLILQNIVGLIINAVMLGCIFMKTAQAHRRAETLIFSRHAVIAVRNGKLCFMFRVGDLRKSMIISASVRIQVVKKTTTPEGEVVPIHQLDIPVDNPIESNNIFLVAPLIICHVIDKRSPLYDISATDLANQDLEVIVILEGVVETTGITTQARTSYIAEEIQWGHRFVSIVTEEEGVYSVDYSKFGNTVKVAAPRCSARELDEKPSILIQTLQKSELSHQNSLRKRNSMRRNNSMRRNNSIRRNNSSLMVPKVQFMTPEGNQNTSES
T2 sequence (O60706 1-1549 isoform O60706-2): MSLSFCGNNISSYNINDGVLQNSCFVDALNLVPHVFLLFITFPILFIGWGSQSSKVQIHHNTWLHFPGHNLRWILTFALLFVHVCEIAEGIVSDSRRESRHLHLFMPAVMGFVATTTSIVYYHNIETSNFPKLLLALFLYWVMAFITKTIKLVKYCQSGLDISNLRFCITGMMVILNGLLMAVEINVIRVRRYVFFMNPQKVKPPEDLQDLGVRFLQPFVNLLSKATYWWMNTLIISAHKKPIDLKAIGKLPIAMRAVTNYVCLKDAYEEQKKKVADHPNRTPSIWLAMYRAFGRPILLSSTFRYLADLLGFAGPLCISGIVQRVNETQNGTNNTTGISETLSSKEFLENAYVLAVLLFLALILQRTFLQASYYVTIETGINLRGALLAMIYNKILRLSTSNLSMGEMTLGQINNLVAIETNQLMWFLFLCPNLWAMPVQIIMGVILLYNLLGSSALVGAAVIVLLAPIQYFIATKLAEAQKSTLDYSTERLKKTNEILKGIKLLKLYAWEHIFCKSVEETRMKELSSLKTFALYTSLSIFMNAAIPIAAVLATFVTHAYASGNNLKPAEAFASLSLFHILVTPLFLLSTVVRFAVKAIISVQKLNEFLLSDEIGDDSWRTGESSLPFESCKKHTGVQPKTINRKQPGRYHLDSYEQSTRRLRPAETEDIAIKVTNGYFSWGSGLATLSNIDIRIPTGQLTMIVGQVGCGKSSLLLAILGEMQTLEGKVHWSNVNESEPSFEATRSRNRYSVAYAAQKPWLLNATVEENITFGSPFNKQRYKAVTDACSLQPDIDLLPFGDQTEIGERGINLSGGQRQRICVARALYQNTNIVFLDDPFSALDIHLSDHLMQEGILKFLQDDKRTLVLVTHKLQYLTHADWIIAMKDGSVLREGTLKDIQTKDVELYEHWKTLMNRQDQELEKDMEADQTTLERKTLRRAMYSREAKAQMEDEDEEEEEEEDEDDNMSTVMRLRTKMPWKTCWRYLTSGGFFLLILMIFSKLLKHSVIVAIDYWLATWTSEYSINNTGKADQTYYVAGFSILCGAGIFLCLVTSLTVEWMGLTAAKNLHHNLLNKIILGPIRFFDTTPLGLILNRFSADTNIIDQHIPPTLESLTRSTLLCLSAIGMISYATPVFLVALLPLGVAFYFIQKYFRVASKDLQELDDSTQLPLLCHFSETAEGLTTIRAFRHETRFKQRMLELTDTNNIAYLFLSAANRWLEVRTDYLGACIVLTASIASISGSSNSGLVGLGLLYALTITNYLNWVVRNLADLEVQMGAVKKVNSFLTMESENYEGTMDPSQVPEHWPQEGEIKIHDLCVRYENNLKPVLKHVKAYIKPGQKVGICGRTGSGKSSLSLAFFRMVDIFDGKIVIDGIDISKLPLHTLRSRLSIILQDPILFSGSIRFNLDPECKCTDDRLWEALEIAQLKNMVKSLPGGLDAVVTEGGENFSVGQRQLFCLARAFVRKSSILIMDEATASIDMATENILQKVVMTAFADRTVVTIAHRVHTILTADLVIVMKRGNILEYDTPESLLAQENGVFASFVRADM

## O=P(O)(O)C(O)(Cn1ccnc1)P(=O)(O)O [Zoledronic acid]
[1]
  IC50: 0.16 nM
  Imax %: −104.8 ± 8.7 n = 21 cells %
  Slope: 0.31 ± 0.07
KIR6.2-SUR1
  IC50: 21000 nM
  Slope: * 0.18 ± 0.09
KIR6.2-SUR1; −60 mV
  Imax %: * −60.13 ± 4.1 n = 15 cells %
[2]; [8]
  osteonecrosis of the jaw, affected females: 4792
  osteonecrosis of the jaw, affected males: 3184
[2]; all indications, up to 1 May 2021 ref EudraVigilance database
  adverse reaction cases reported: 35,201 cases
[2]; cardiac A.D.R. ref EudraVigilance database
  arrhythmia, number of reports: 197
[3]
  IC50: 0.21 nM
[3]; concentration-response fit
  Slope: 0.29 ± 0.05
[3]; −60 mV, symmetrical 150 mM K+
  Imax %: −99.4 ± 5 n = 21 fibers %
KIR6.1-SUR2B
  IC50: 0.39 nM
  Slope: 0.59 ± 0.04
KIR6.1-SUR2B; −60 mV
  Imax %: −94 ± 4.8 n = 15 cells %
KIR6.2-SUR2A
  IC50: 7100 nM
  Slope: * 0.12 ± 0.7
KIR6.2-SUR2A; −60 mV
  Imax %: −83.7 ± 1.2 n = 15 cells %
[4]
  hypoglycemia, % of the A.D.R. per S.O.C.: 1.63%
[4]; cardiac A.D.R.
  arrhythmia, % of cardiac A.D.R.: 8.1%
  atrial fibrillation, % of cardiac A.D.R.: 17.9%
  congestive heart failure, % of cardiac A.D.R.: 12.6%
  myocardial infarction, % of cardiac A.D.R.: 12%
  palpitations, % of cardiac A.D.R.: 13.2%
  sinus tachycardia, % of cardiac A.D.R.: 5.3%
  tachycardia, % of cardiac A.D.R.: 12.2%
[4]; [9]
  arthralgia, % of the A.D.R.: 16%
  muscular weakness, % of the A.D.R. per S.O.C.: 2.7%
  myalgia, % of the A.D.R.: 10%
  osteonecrosis of the jaw, % of the total A.D.R.: 47.9%
[4]; vascular S.O.C.
  blood pressure increase, % of A.D.R.: 16%
  hypertension, % of A.D.R.: 25%
  hypotension, % of A.D.R.: 18%
[4]; [10]
  Proportional Reporting Ratio (P.R.R.) arrhythmias: ≥ 2
  Proportional Reporting Ratio (P.R.R.) atrial fibrillation: ≥ 2
  Proportional Reporting Ratio (P.R.R.) diarrhea: ≥ 2
  Proportional Reporting Ratio (P.R.R.) hypertension: ≥ 2
  Proportional Reporting Ratio (P.R.R.) hypoglycemia: lower risk
  Proportional Reporting Ratio (P.R.R.) muscular weakness: ≥ 2
  Proportional Reporting Ratio (P.R.R.) myalgia: ≥ 2
  Proportional Reporting Ratio (P.R.R.) osteonecrosis of jaw: ≥ 2
  Proportional Reporting Ratio (P.R.R.) rhabdomyolysis: lower risk
KIR6.1-SUR1
  Imax %: * −40 ± 8.8 n = 3 cells %
[5]
  IC50: 1200 nM
[5]; concentration-response fit
  Slope: 0.38 ± 0.07
[5]; −60 mV, symmetrical 150 mM K+
  Imax %: −100.1 ± 9.3 n = 17 fibers %
[6]
  median overall survival: 52 months

## COc1ccc(Cl)cc1C(=O)NCCc1ccc(S(=O)(=O)NC(=O)NC2CCCCC2)cc1 [Glibenclamide, 5-chloro-N-(2-{4-[(cyclohexylcarbamoyl)sulfamoyl]phenyl}ethyl)-2-methoxybenzamide]
[1]; C-A patches, nanomolar concentrations, Figure 1C
  inhibition of KATP currents in C-A patches (in words): markedly reduced
[1]
  IC50: 5.07 nM
  Imax %: −88.32 ± 21 n = 13 cells %
  Slope: 0.4 ± 0.08
[7]
  IC50: 10.2 nM
  Imax %: −93 ± 14 n = 18 cells %
  Slope: 0.5 ± 0.03

## CC(C)[C@H]1CC[C@H](C(=O)N[C@H](Cc2ccccc2)C(=O)O)CC1 [nateglinide]
[4]
  hypoglycemia, % of the A.D.R. per S.O.C.: 77.9%
  rhabdomyolysis, % of A.D.R.: 18.4%
[4]; [10]
  Proportional Reporting Ratio (P.R.R.) arrhythmias: ≥ 2
  Proportional Reporting Ratio (P.R.R.) hypoglycemia: ≥ 2
  Proportional Reporting Ratio (P.R.R.) palpitations: ≥ 2
  Proportional Reporting Ratio (P.R.R.) rhabdomyolysis: ≥ 2

## CCC1=C(C)CN(C(=O)NCCc2ccc(S(=O)(=O)NC(=O)N[C@H]3CC[C@H](C)CC3)cc2)C1=O [glimepiride]
[4]
  hypoglycemia, % of the A.D.R. per S.O.C.: 75.6%
  rhabdomyolysis, % of A.D.R.: 17.7%
[4]; [10]
  Proportional Reporting Ratio (P.R.R.) hypoglycemia: ≥ 2
